Assay results as given in patent publication US20010047099A1, “4-aminopicolinates and their use as herbicides” (priority 2000, published 2001).

Assays:
[1] = system: wild buckwheat (Polygonum convolvulus); assay: Postemergence herbicidal activity; type: in vivo; details: Fallopia convolvulus, post-emergence, 336 h, Table 1, visual, after 2 weeks, read-out: Post-emergent % Control POLCO; for pest or weed control at 250 ppm: rate 250 ppm
Method: (§1) Seeds of the desired test plant species were planted in Grace-Sierra MetroMix® 306 planting mixture, which typically has a pH of 6.0 to 6.8 and an organic matter content of about 30 percent, in plastic pots with a surface area of 64 square centimeters. When required to ensure good germination and healthy plants, a fungicide treatment and/or other chemical or physical treatment was applied. The plants were grown for 7-21 days in a greenhouse with an approximate 15 hr photoperiod which was maintained at about 23-29° C. during the day and 22-28° C. during the night. Nutrients and water were added on a regular basis and supplemental lighting was provided with overhead metal halide 1000-Watt lamps as necessary. The plants were employed for testing when they reached the first or second true leaf stage.
(§2) A weighed amount, determined by the highest rate to be tested, of each test compound was placed in a 20 mL glass vial and was dissolved in 4 mL of a 97:3 v/v (volume/volume) mixture of acetone and dimethyl sulfoxide (DMSO) to obtain concentrated stock solutions. […] The concentrated stock solutions obtained were diluted with an aqueous mixture containing acetone, water, isopropyl alcohol, DMSO, Atplus 411F crop oil concentrate, and Triton X-155 surfactant in a 48.5:39:10:1.5:1.0:0.02 v/v ratio to obtain spray solutions of known concentration. The solutions containing the highest concentration to be tested were prepared by diluting 2 mL aliquots of the stock solution with 13 mL of the mixture and lower concentrations were prepared by serial dilution of the stock solution. Approximately 1.5 mL aliquots of each solution of known concentration were sprayed evenly onto each of the test plant pots using a DeVilbiss atomizer driven by compressed air pressure of 2 to 4 psi ([…]) to obtain thorough coverage of each plant. Control plants were sprayed in the same manner with the aqueous mixture. In this test an application rate of 1 ppm results in the application of approximately 1 g/Ha.
(§3) The treated plants and control plants were placed in a greenhouse as described above and watered by sub-irrigation to prevent wash-off of the test compounds. After 2 weeks the condition of the test plants as compared with that of the untreated plants was determined visually and scored on a scale of 0 to 100 percent where 0 corresponds to no injury and 100 corresponds to complete kill.

[2] = system: cocklebur (Xanthium strumarium); assay: Postemergence herbicidal activity; type: in vivo; details: Xanthium strumarium, post-emergence, 336 h, Table 1, visual, after 2 weeks, read-out: Post-emergent % Control XANST; for pest or weed control at 250 ppm: rate 250 ppm
Method: as §1, §2, §3

[3] = system: chickweed (Stellaria media); assay: Postemergence herbicidal activity; type: in vivo; details: Stellaria media, post-emergence, 336 h, Table 1, visual, after 2 weeks, read-out: Post-emergent % Control STEME; for pest or weed control at 250 ppm: rate 250 ppm
Method: as §1, §2, §3

[4] = system: White Clover (Trifolium repens); assay: Range & Pasture Crop Testing (postemergence track sprayer); type: in vivo; details: Table 10
Method: (§4) By applying the well-accepted probit analysis as described by J. Berkson in Journal of the […], 48, 565 (1953) and by D. Finney in “Probit Analysis” Cambridge University Press (1952), the above data can be used to calculate GR50 and GR80 values, which are defined as growth reduction factors that correspond to the effective dose of herbicide required to kill or control 50 percent or 80 percent, respectively, of a target plant.
(§5) Rates are calculated based upon 5 doses being applied. The high rate (X), followed by serial dilutions of 1/2×, 1/4×, 1/8× and 1/16×. Compound requirements are based upon the 187 L/ha carrier volume, specifications of the delivery system (Mandel track sprayer) and generating 24 mL of technical spray material to allow for the dilutions and overage in the sprayer. [formula]
(§6) All technical materials were formulated in 97:3 (acetone:DMSO) with 0.25% X-77. The total volume of solvent is maintained at less than 7%. An overhead Mandel track sprayer calibrated to deliver 187 L/ha was used for all treatment applications (postemergence). Picloram was included as a comparison treatment.
(§7) Solutions were applied with a mechanized track-sprayer at the following settings:
(§8) Spray height: 17 inches above top of plants
(§9) This provides an application volume of 187 L/ha.
(§10) Percent weed control (burn down) was evaluated 3 weeks after treatment. Visual control on a 0-100 linear scale was used, with 0 representing no control and 100 representing total control. Burn down ratings were taken for annual and perennial weed species.

[5] = system: field bindweed (Convolvulus arvensis); assay: as above; type: in vivo; details: Table 10; clover pasture; postemergence
Method: as §4, §5, §6, §7, §8, §9, §10

[6] = system: Canada thistle (Cirsium arvense); assay: as above; type: in vivo; details: Table 10; clover pasture; postemergence
Method: as §4, §5, §6, §7, §8, §9, §10

[7] = system: pigweed (Amaranthus retroflexus); assay: Preemergence herbicidal activity; type: in vivo; details: Amaranthus retroflexus, 504 h, Table 6 (headed Post-emergent; text: preemergence), after 3 weeks, read-out: % Control AMARE; for pest or weed control at 280 ppm: rate 280 ppm; for pest or weed control at 70 ppm: rate 70 ppm; for pest or weed control at 560 ppm: rate 560 ppm
From the text: (§11) Seeds of the desired test plant species were planted in a soil matrix prepared by mixing a loam soil (43 percent silt, 19 percent clay, and 38 percent sand, with a pH of about 8.1 and an organic matter content of bout 1.5 percent) and sand in a 70 to 30 ratio. The soil matrix was contained in plastic pots with a surface area of 113 square centimeters. When required to ensure good germination and healthy plants. a fungicide treatment and/or other chemical or physical treatment was applied.
(§12) A weighed amount, determined by the highest rate to be tested, of each test compound was placed in a 20 mL glass vial and was dissolved in 4 mL of a 97:3 v/v (volume/volume) mixture of acetone and dimethyl sulfoxide to obtain concentrated stock solutions. […] The stock solutions obtained were diluted with a 99.9:0.1 mixture of water and Tween® […] surfactant to obtain application solutions of known concentration. The solutions containing the highest concentration to be tested were prepared by diluting 2 mL aliquots of the stock solution with 15 mL of the mixture and lower concentrations were prepared by serial dilution of the stock solution. A 2.5 mL aliquot of each solution of known concentration was sprayed evenly onto the soil surface (113 sq. cm) of each seeded pot using a Cornwall 5.0 mL glass syringe fitted with a TeeJet TN-3 hollow cone nozzle to obtain thorough coverage of the soil in each pot. Control pots were sprayed in the same manner with the aqueous mixture.
(§13) The treated pots and control pots were placed in a greenhouse maintained with an approximate 15 hr photoperiod and temperatures of about 23-29° C. during the day and 22-28° C. during the night. Nutrients and water were added on a regular basis and supplemental lighting was provided with overhead metal halide 1000-Watt lamps as necessary. The water was added by top-irrigation. After 3 weeks the condition of the test plants that germinated and grew as compared with that of the untreated plants that germinated and grew was determined visually and scored on a scale of 0 to 100 percent where 0 corresponds to no injury and 100 corresponds to complete kill or no germination.

[8] = system: velvetleaf (Abutilon theophrasti); assay: Preemergence herbicidal activity; type: in vivo; details: Abutilon theophrasti, 504 h, Table 6 (headed Post-emergent; text: preemergence), after 3 weeks, read-out: % Control ABUTH; for pest or weed control at 280 ppm: rate 280 ppm; for pest or weed control at 70 ppm: rate 70 ppm; for pest or weed control at 560 ppm: rate 560 ppm
From the text: as §11, §12, §13

[9] = system: morningglory (Ipomoea hederacea); assay: Preemergence herbicidal activity; type: in vivo; details: Ipomoea, 504 h, Table 6 (headed Post-emergent; text: preemergence), after 3 weeks, read-out: % Control IPOHE; for pest or weed control at 280 ppm: rate 280 ppm; for pest or weed control at 70 ppm: rate 70 ppm; for pest or weed control at 560 ppm: rate 560 ppm
From the text: as §11, §12, §13

Compound	melting point [°C]	pest or weed control at 125 ppm ([1]; rate 125 ppm) [%]	pest or weed control at 125 ppm ([2]; rate 125 ppm) [%]	pest or weed control at 125 ppm ([3]; rate 125 ppm) [%]	GR20 TRFRE [4] [g/ha]	GR80 CONAR [5] [g/ha]	GR80 CIRAR [6] [g/ha]	pest or weed control at 280 ppm [7] [%]	pest or weed control at 280 ppm [8] [%]	pest or weed control at 280 ppm [9] [%]	pest or weed control at 250 ppm [1] [%]	pest or weed control at 250 ppm [2] [%]	pest or weed control at 250 ppm [3] [%]	pest or weed control at 70 ppm [7] [%]	pest or weed control at 70 ppm [8] [%]	pest or weed control at 70 ppm [9] [%]	pest or weed control at 560 ppm [7] [%]	pest or weed control at 560 ppm [8] [%]	pest or weed control at 560 ppm [9] [%]
CCCOC(=O)c1nc(Cl)cc(N)c1Cl [Compound 5, n-propyl 4-amino-3,6-dichloropyridine-2-carboxylate]	94 to 95	100	100	100	<17.5	140.1	<17.5	100	100	100									
CCCCOC(=O)c1nc(Cl)cc(N)c1Cl [Compound 7, n-butyl 4-amino-3,6-dichloropyridine-2-carboxylate]	78 to 79				15.3	116.6	17.3	100	100	100	100	100	100						
Nc1cc(Oc2ccccc2)nc(C(=O)O)c1Cl [Compound 48, 4-amino-3-chloro-6-phenoxypyridine-2-carboxylic acid]	178							30	100	100	100	100	60						
COc1ccc(Oc2cc(N)c(Cl)c(C(=O)O)n2)cc1 [Compound 49, 4-amino-3-chloro-6-(4-methoxyphenoxy)-pyridine-2-carboxylic acid]	174										70	60	0	0	0	0			
Nc1c(Cl)c(Oc2ccccc2)nc(C(=O)O)c1Cl [Compound 54, 4-Amino-3,5-dichloro-6-phenoxypyridine-2-carboxylic acid]	158 to 160							10	50	41	40	100	0						
CC(C)COc1nc(C(=O)O)c(Cl)c(N)c1Cl [Compound 56, 4-Amino-3,5-dichloro-6-(2-methylpropoxy)pyridine-2-carboxylic acid]	104 to 106										20	85	30				0	40	0

Continued, in another order:

melting point [°C]	Compound	pest or weed control at 125 ppm ([1]; rate 125 ppm) [%]	pest or weed control at 125 ppm ([2]; rate 125 ppm) [%]	pest or weed control at 125 ppm ([3]; rate 125 ppm) [%]	GR20 TRFRE [4] [g/ha]	GR80 CONAR [5] [g/ha]	GR80 CIRAR [6] [g/ha]	pest or weed control at 280 ppm [7] [%]	pest or weed control at 280 ppm [8] [%]	pest or weed control at 280 ppm [9] [%]	pest or weed control at 250 ppm [1] [%]	pest or weed control at 250 ppm [2] [%]	pest or weed control at 250 ppm [3] [%]	pest or weed control at 70 ppm [7] [%]	pest or weed control at 70 ppm [8] [%]	pest or weed control at 70 ppm [9] [%]	pest or weed control at 560 ppm [7] [%]	pest or weed control at 560 ppm [8] [%]	pest or weed control at 560 ppm [9] [%]
196	Nc1cc(Oc2cc(Cl)cc(Cl)c2)nc(C(=O)O)c1Cl [Compound 47, 4-Amino-3-chloro-6-(3,5-dichlorophenoxy)pyridine-2-carboxylic acid]							100	95	0	100	100	100						
173	Cc1ccc(Oc2cc(N)c(Cl)c(C(=O)O)n2)cc1 [Compound 50, 4-amino-3-chloro-6-(4-methylphenoxy)-pyridine-2-carboxylic acid]										70	60	0	0	0	0			
169	Cc1cccc(Oc2cc(N)c(Cl)c(C(=O)O)n2)c1 [Compound 52, 4-amino-3-chloro-6-(3-methylphenoxy)-pyridine-2-carboxylic acid]										90	70	20				20	50	70
176	Nc1cc(Oc2cccc(Cl)c2)nc(C(=O)O)c1Cl [Compound 53, 4-amino-3-chloro-6-(3-chlorophenoxy)-pyridine-2-carboxylic acid]										100	100	100				0	100	100
